{
  "source": "patent US11400107B2",
  "about": "“Cancer treatments” (NuCana plc, priority 2016, dated 2022)",
  "assay_type_in_all_cases": "cell-based, human",
  "key": {"[1]": {"tested_on": "primary acute myeloid leukaemia (AML) blasts", "assay": "In vitro cytotoxicity assay (LD50) in primary acute myeloid leukaemia cells", "settings": "for LD50: primary AML blasts, 48 h, concentration required to kill 50% of the tumour cells in culture; for potency as compared to the respective parent compound (summary): summary statement of the description", "protocol": "ProTide compounds, as defined herein, and the comparator ProTide compound NUC-1031 were assayed for their cytotoxic effects on primary cultures of acute myeloid leukaemia (AML) blasts. LD50 values (the concentration required to kill 50% of the tumour cells in culture) were calculated in respect of the ProTide compounds of the invention, and the parent compounds from which they are derived. […] The LD50 values of the ProTide compounds as defined herein (and their parent compounds) were compared with the comparator ProTide NUC-1031 and its parent compound gemcitabine.\nBone marrow samples were collected in ethylenediaminetetraacetic acid (EDTA) from newly diagnosed, previously untreated, acute myeloid leukaemia (AML) patients. AML blasts were enriched by density gradient centrifugation using Histopaque (Sigma, Poole, UK) and were subsequently maintained in Roswell Park Memorial Institute medium (RPMI) supplemented with 10% foetal bovine serum (FBS). Cells were treated with ProTide compounds (either as encompassed by the present invention, or the comparator ProTide NUC-1031) or with the ProTides' parent compounds at a range of experimental concentrations, and incubated for 48 h. All cultures were maintained at 37° C. in a 5% CO2 humidified atmosphere.\nCells were harvested and labelled with CD34-fluorescein isothiocyanate (FITC) (BD Biosciences, Buckingham, UK) and then resuspended in 200 μl of binding buffer containing 4 μl of annexin V labelled with allophycocyanin (APC) (eBioscience Ltd, Hatfield, UK). Apoptosis was quantified in the CD34^+ AML cells using an Accuri C6 flow cytometer (Becton Dickinson, CA, USA). At least 10,000 events were acquired and data were subsequently analysed using FlowJo software (Tree Star Inc., Ashland, Oreg., USA). All LD50 values (concentration of drug required to kill 50% of cells) were derived from the dose-response curves."}, "[2]": {"tested_on": "KG1a cells", "assay": "In vitro apoptosis / LD50 assay (Annexin V) in KG1a cells", "settings": "for LD50: KG1a cells (FIG. 7A), 72 h", "protocol": "The acute myeloid leukaemia (AML) KG1a cell line was maintained in RPMI medium (Invitrogen, Paisley, UK) supplemented with 100 units/ml penicillin, 100 μg/ml streptomycin and 20% fetal calf serum. Cells were subsequently aliquoted (10^5 cells/100 μl) into 96-well plates and were incubated at 37° C. in a humidified 5% carbon dioxide atmosphere for 72 h in the presence of NUC-1031 or gemcitabine at concentrations that were experimentally determined for each compound. In addition, control cultures were carried out to which no drug was added. Cells were subsequently harvested by centrifugation and were analysed by flow cytometry using the Annexin V assay.\nCultured cells were harvested by centrifugation and then resuspended in 195 μl of calcium-rich buffer. Subsequently, 5 μl of Annexin V (Caltag Medsystems, Botolph Claydon, UK) was added to the cell suspension and cells were incubated in the dark for 10 mins prior to washing. Cells were finally resuspended in 190 μl of calcium-rich buffer together with 10 μl of propidium iodide. Apoptosis was assessed by dual-colour immunofluorescent flow cytometry as described previously. Subsequently LD50 values (the dose required to kill 50% of the cells in a culture) were calculated for each nucleoside analogue and ProTide.\n(§1) The data obtained in these experiments were evaluated using one way ANOVA. All data was confirmed as Gaussian or a Gaussian approximation using the omnibus K2 test. LD50 values were calculated from the non-linear regression and line of best-fit analysis of the sigmoidal dose-response curves. All statistical analyses were performed using Graphpad Prism 6.0 software (Graphpad Software Inc., San Diego, Calif.)."}, "[3]": {"tested_on": "Lin^−/CD34^+/CD38^−/CD123^+ cancer stem cells in KG1a cells", "assay": "Immunophenotypic quantification of the leukaemic stem cell compartment in KG1a cells", "settings": "for proportion of cancer stem cells as compared to non-stem cancer cells after treatment / low concentration at which the selective reduction of cancer stem cells was still observed: KG1a cells; for proportion of cancer stem cells as compared to non-stem cancer cells after treatment: 72 h; for selectivity for cancer stem cells as opposed to non-stem cancer cells (summary): summary statement of the description", "protocol": "The respective abilities of NUC-1031 and gemcitabine to target CSCs were investigated in the AML cell line KG1a.\nKG1a cells were cultured for 72 hours in the presence of a wide range of concentrations of each nucleoside analogue and their respective ProTides. Cells were then harvested and labelled with a cocktail of anti-lineage antibodies (PE-cy7), anti-CD34 (FITC), anti-CD38 (PE) and anti-CD123 (PERCP cy5). The sub-population expressing a leukaemic stem cell (LSC) phenotype were subsequently identified and were expressed as a percentage of all viable cells left in the culture. The percentages of stem cells remaining were then plotted on a dose-response graph and the proportion of cancer stem cells was compared across the various concentrations of ProTides and their respective parent compounds, in order to determine if they preferentially target cancer stem cells.\nas §1"}},
  "note": "“Also recorded” adds a separate entry of the source.",
  "data": [
    {"smiles": "O=c1[nH]c(=O)n([C@H]2C[C@H](O)[C@@H](CO)O2)cc1F", "note": "[FUDR]", "values": [
      {"measurement": "LD50", "setting": "[1]", "result": "FUDR 1.18 μM"},
      {"measurement": "LD50", "setting": "[2]", "result": 1.18, "unit": "µM"},
      {"measurement": "proportion of cancer stem cells as compared to non-stem cancer cells after treatment", "setting": "[3]", "result": "reduction in the proportion of cancer stem cells"}
    ]},
    {"smiles": "CCCCCOC(=O)[C@H](C)NP(=O)(OC[C@H]1O[C@@H](n2cc(F)c(=O)[nH]c2=O)CC1O)Oc1cccc2ccccc12", "note": "(stereo partly drawn) [CPF-581]", "values": [
      {"measurement": "LD50", "setting": "[1]", "result": "CPF 581 0.027 μM"},
      {"measurement": "potency as compared to the respective parent compound (summary)", "setting": "[1]", "result": "greater potency"},
      {"measurement": "LD50", "setting": "[2]", "result": 0.027, "unit": "µM"},
      {"measurement": "potency relative to FUDR (times more potent)", "setting": "[2]; from LD50 values", "result": "over 50 times"},
      {"measurement": "low concentration at which the selective reduction of cancer stem cells was still observed", "setting": "[3]", "result": "approximately 8×10^−8 M"},
      {"measurement": "proportion of cancer stem cells as compared to non-stem cancer cells after treatment", "setting": "[3]", "result": "reduction in the proportion of cancer stem cells"},
      {"measurement": "selectivity for cancer stem cells as opposed to non-stem cancer cells (summary)", "setting": "[3]", "result": "selectively target for cancer stem cells; also recorded: high selectivity for cancer stem cells"}
    ]},
    {"smiles": "C[C@H](NP(=O)(OC[C@H]1O[C@@H](n2cc(F)c(=O)[nH]c2=O)CC1O)Oc1ccccc1)C(=O)OCc1ccccc1", "note": "(stereo partly drawn) [CPF-381]", "values": [
      {"measurement": "LD50", "setting": "[1]", "result": "CPF 381 0.039 μM"},
      {"measurement": "potency as compared to the respective parent compound (summary)", "setting": "[1]", "result": "greater potency"},
      {"measurement": "low concentration at which the selective reduction of cancer stem cells was still observed", "setting": "[3]", "result": "approximately 8×10^−8 M"},
      {"measurement": "proportion of cancer stem cells as compared to non-stem cancer cells after treatment", "setting": "[3]", "result": "reduction in the proportion of cancer stem cells"},
      {"measurement": "selectivity for cancer stem cells as opposed to non-stem cancer cells (summary)", "setting": "[3]", "result": "selectively target for cancer stem cells; also recorded: high selectivity for cancer stem cells"}
    ]}
  ]
}
